Patent US20240138411A1, “METHOD OF […] OF SUGARCANE” (CORTEVA AGRISCIENCE LLC, priority 2021, published 2024)
Entries after “also recorded” stand apart in the source; their conditions may differ.

Tested on: sugarcane
Experiment: Sugarcane flowering inhibition field trials, floral induction rated on UFSCar scale
Assay type: in vivo
Protocol: In order to explore the activity of florpyrauxifen as flowering inhibitor in sugarcane, field studies were carried out. Florpyrauxifen-benzyl was tested at rates from 2 to 20 grams active ingredient per hectare (g ai/ha) and compared to Ethrel® 720 (Bayer), the standard treatment. The flowering inhibition effect was assessed by checking the floral induction in sugarcane through the percentage scale recommended by UFSCar (Federal University of Sao Carlos, Sao Paulo, Brazil).
Four trials were carried out in sugarcane where florpyrauxifen-benzyl (Rinskor®), applied at a rate of 2 to 20 g ai/ha, was compared to ethephon (Ethrel® 720) applied at a rate of 475 g ai/ha. Control plots of untreated sugarcane were also evaluated. Rinskor® and Ethrel® 720 were diluted in water and a single application for each study (backpack sprayer) was performed delivering 50 L of spray solution per ha at the reproductive stage of sugarcane and at a maximum 150 days before harvest. The activity of florpyrauxifen-benzyl as a flowering inhibitor was measured via assessments (Scale of flowering inhibition—see chart 1) performed at 0, 14, 30, 45, 60, 75, 90, 120, 150 days after application, or up to harvest time. The assessments were measured in sugarcane stems, rating the flowering induction according to the UFSCar scale shown below. Significance of treatment effect was evaluated with F-approximate test (α=0.1) and least square means from different treatments were compared with Tukey's test.

COc1c(Cl)ccc(-c2nc(C(=O)OCc3ccccc3)c(Cl)c(N)c2F)c1F [Rinskor, florpyrauxifen-benzyl]
Frequency 1/1 (0%) (Table 3, 120 DAA, 10 g ai/ha): 72.5%
Frequency 2/1 (15%) (Table 3, 120 DAA, 10 g ai/ha): 27.5%
Frequency 3/1 (30%) (Table 3, 120 DAA, 10 g ai/ha): 0.0%
Frequency 4/1 (50%) (Table 3, 120 DAA, 10 g ai/ha): 0.0%
Frequency 4/2 (80%) (Table 3, 120 DAA, 10 g ai/ha): 0.0%
Frequency 4/3 (90%) (Table 3, 120 DAA, 10 g ai/ha): 0.0%
Frequency 4/4 (100%) (Table 3, 120 DAA, 10 g ai/ha): 0.0%
% Referring to Scale (Table 3, 120 DAA, 15 g ai/ha): 2.6%
Frequency 1/1 (0%) (Table 3, 120 DAA, 15 g ai/ha): 85.0%
Frequency 2/1 (15%) (Table 3, 120 DAA, 15 g ai/ha): 12.5%
Frequency 3/1 (30%) (Table 3, 120 DAA, 15 g ai/ha): 2.5%
Frequency 4/1 (50%) (Table 3, 120 DAA, 15 g ai/ha): 0.0%
Frequency 4/2 (80%) (Table 3, 120 DAA, 15 g ai/ha): 0.0%
Frequency 4/3 (90%) (Table 3, 120 DAA, 15 g ai/ha): 0.0%
Frequency 4/4 (100%) (Table 3, 120 DAA, 15 g ai/ha): 0.0%
% Referring to Scale (Table 3, 120 DAA, 20 g ai/ha): 3.0%
Frequency 1/1 (0%) (Table 3, 120 DAA, 20 g ai/ha): 80.0%
Frequency 2/1 (15%) (Table 3, 120 DAA, 20 g ai/ha): 20.0%
Frequency 3/1 (30%) (Table 3, 120 DAA, 20 g ai/ha): 0.0%
Frequency 4/1 (50%) (Table 3, 120 DAA, 20 g ai/ha): 0.0%
Frequency 4/2 (80%) (Table 3, 120 DAA, 20 g ai/ha): 0.0%
Frequency 4/3 (90%) (Table 3, 120 DAA, 20 g ai/ha): 0.0%
Frequency 4/4 (100%) (Table 3, 120 DAA, 20 g ai/ha): 0.0%
% Referring to Scale (Table 3, 150 DAA, 2 g ai/ha): 3.0%
Frequency 1/1 (0%) (Table 3, 150 DAA, 2 g ai/ha): 80.0%
Frequency 2/1 (15%) (Table 3, 150 DAA, 2 g ai/ha): 20.0%
Frequency 3/1 (30%) (Table 3, 150 DAA, 2 g ai/ha): 0.0%
Frequency 4/1 (50%) (Table 3, 150 DAA, 2 g ai/ha): 0.0%
Frequency 4/2 (80%) (Table 3, 150 DAA, 2 g ai/ha): 0.0%
Frequency 4/3 (90%) (Table 3, 150 DAA, 2 g ai/ha): 0.0%
Frequency 4/4 (100%) (Table 3, 150 DAA, 2 g ai/ha): 0.0%
% Referring to Scale (Table 3, 150 DAA, 5 g ai/ha): 1.9%
Frequency 1/1 (0%) (Table 3, 150 DAA, 5 g ai/ha): 87.5%
Frequency 2/1 (15%) (Table 3, 150 DAA, 5 g ai/ha): 12.5%
Frequency 3/1 (30%) (Table 3, 150 DAA, 5 g ai/ha): 0.0%
Frequency 4/1 (50%) (Table 3, 150 DAA, 5 g ai/ha): 0.0%
Frequency 4/2 (80%) (Table 3, 150 DAA, 5 g ai/ha): 0.0%
Frequency 4/3 (90%) (Table 3, 150 DAA, 5 g ai/ha): 0.0%
Frequency 4/4 (100%) (Table 3, 150 DAA, 5 g ai/ha): 0.0%
% Referring to Scale (Table 3, 150 DAA, 7 g ai/ha): 3.0%
Frequency 1/1 (0%) (Table 3, 150 DAA, 7 g ai/ha): 80.0%
Frequency 2/1 (15%) (Table 3, 150 DAA, 7 g ai/ha): 20.0%
Frequency 3/1 (30%) (Table 3, 150 DAA, 7 g ai/ha): 0.0%
Frequency 4/1 (50%) (Table 3, 150 DAA, 7 g ai/ha): 0.0%
Frequency 4/2 (80%) (Table 3, 150 DAA, 7 g ai/ha): 0.0%
Frequency 4/3 (90%) (Table 3, 150 DAA, 7 g ai/ha): 0.0%
Frequency 4/4 (100%) (Table 3, 150 DAA, 7 g ai/ha): 0.0%
% Referring to Scale (Table 3, 150 DAA, 10 g ai/ha): 0.8%
Frequency 1/1 (0%) (Table 3, 150 DAA, 10 g ai/ha): 95.0%
Frequency 2/1 (15%) (Table 3, 150 DAA, 10 g ai/ha): 5.0%
Frequency 3/1 (30%) (Table 3, 150 DAA, 10 g ai/ha): 0.0%
Frequency 4/1 (50%) (Table 3, 150 DAA, 10 g ai/ha): 0.0%
Frequency 4/2 (80%) (Table 3, 150 DAA, 10 g ai/ha): 0.0%
Frequency 4/3 (90%) (Table 3, 150 DAA, 10 g ai/ha): 0.0%
Frequency 4/4 (100%) (Table 3, 150 DAA, 10 g ai/ha): 0.0%
% Referring to Scale (Table 3, 150 DAA, 15 g ai/ha): 1.9%
Frequency 1/1 (0%) (Table 3, 150 DAA, 15 g ai/ha): 87.5%
Frequency 2/1 (15%) (Table 3, 150 DAA, 15 g ai/ha): 12.5%
Frequency 3/1 (30%) (Table 3, 150 DAA, 15 g ai/ha): 0.0%
Frequency 4/1 (50%) (Table 3, 150 DAA, 15 g ai/ha): 0.0%
Frequency 4/2 (80%) (Table 3, 150 DAA, 15 g ai/ha): 0.0%
Frequency 4/3 (90%) (Table 3, 150 DAA, 15 g ai/ha): 0.0%
Frequency 4/4 (100%) (Table 3, 150 DAA, 15 g ai/ha): 0.0%
% Referring to Scale (Table 3, 150 DAA, 20 g ai/ha): 0.0%
Frequency 1/1 (0%) (Table 3, 150 DAA, 20 g ai/ha): 100.0%
Frequency 2/1 (15%) (Table 3, 150 DAA, 20 g ai/ha): 0.0%
Frequency 3/1 (30%) (Table 3, 150 DAA, 20 g ai/ha): 0.0%
Frequency 4/1 (50%) (Table 3, 150 DAA, 20 g ai/ha): 0.0%
Frequency 4/2 (80%) (Table 3, 150 DAA, 20 g ai/ha): 0.0%
Frequency 4/3 (90%) (Table 3, 150 DAA, 20 g ai/ha): 0.0%
Frequency 4/4 (100%) (Table 3, 150 DAA, 20 g ai/ha): 0.0%
% Referring to Scale (Table 4, 90 DAA, 2 g ai/ha): 5.6%
Frequency 1/1 (0%) (Table 4, 90 DAA, 2 g ai/ha): 65.0%
Frequency 2/1 (15%) (Table 4, 90 DAA, 2 g ai/ha): 35.0%
Frequency 3/1 (30%) (Table 4, 90 DAA, 2 g ai/ha): 0.0%
Frequency 4/1 (50%) (Table 4, 90 DAA, 2 g ai/ha): 0.0%
Frequency 4/2 (80%) (Table 4, 90 DAA, 2 g ai/ha): 0.0%
Frequency 4/3 (90%) (Table 4, 90 DAA, 2 g ai/ha): 0.0%
Frequency 4/4 (100%) (Table 4, 90 DAA, 2 g ai/ha): 0.0%
% Referring to Scale (Table 4, 90 DAA, 4 g ai/ha): 1.1%
Frequency 1/1 (0%) (Table 4, 90 DAA, 4 g ai/ha): 87.5%
Frequency 2/1 (15%) (Table 4, 90 DAA, 4 g ai/ha): 12.5%
Frequency 3/1 (30%) (Table 4, 90 DAA, 4 g ai/ha): 0.0%
Frequency 4/1 (50%) (Table 4, 90 DAA, 4 g ai/ha): 0.0%
Frequency 4/2 (80%) (Table 4, 90 DAA, 4 g ai/ha): 0.0%
Frequency 4/3 (90%) (Table 4, 90 DAA, 4 g ai/ha): 0.0%
Frequency 4/4 (100%) (Table 4, 90 DAA, 4 g ai/ha): 0.0%
% Referring to Scale (Table 4, 90 DAA, 10 g ai/ha): 6.0%
Frequency 1/1 (0%) (Table 4, 90 DAA, 10 g ai/ha): 60.0%
Frequency 2/1 (15%) (Table 4, 90 DAA, 10 g ai/ha): 40.0%
Frequency 3/1 (30%) (Table 4, 90 DAA, 10 g ai/ha): 0.0%
Frequency 4/1 (50%) (Table 4, 90 DAA, 10 g ai/ha): 0.0%
Frequency 4/2 (80%) (Table 4, 90 DAA, 10 g ai/ha): 0.0%
Frequency 4/3 (90%) (Table 4, 90 DAA, 10 g ai/ha): 0.0%
Frequency 4/4 (100%) (Table 4, 90 DAA, 10 g ai/ha): 0.0%
% Referring to Scale (Table 4, 90 DAA, 15 g ai/ha): 2.6%
Frequency 1/1 (0%) (Table 4, 90 DAA, 15 g ai/ha): 82.5%
Frequency 2/1 (15%) (Table 4, 90 DAA, 15 g ai/ha): 17.5%
Frequency 3/1 (30%) (Table 4, 90 DAA, 15 g ai/ha): 0.0%
Frequency 4/1 (50%) (Table 4, 90 DAA, 15 g ai/ha): 0.0%
Frequency 4/2 (80%) (Table 4, 90 DAA, 15 g ai/ha): 0.0%
Frequency 4/3 (90%) (Table 4, 90 DAA, 15 g ai/ha): 0.0%
Frequency 4/4 (100%) (Table 4, 90 DAA, 15 g ai/ha): 0.0%
% Referring to Scale (Table 4, 90 DAA, 20 g ai/ha): 3.0%
Frequency 1/1 (0%) (Table 4, 90 DAA, 20 g ai/ha): 80.0%
Frequency 2/1 (15%) (Table 4, 90 DAA, 20 g ai/ha): 20.0%
Frequency 3/1 (30%) (Table 4, 90 DAA, 20 g ai/ha): 0.0%
Frequency 4/1 (50%) (Table 4, 90 DAA, 20 g ai/ha): 0.0%
Frequency 4/2 (80%) (Table 4, 90 DAA, 20 g ai/ha): 0.0%
Frequency 4/3 (90%) (Table 4, 90 DAA, 20 g ai/ha): 0.0%
Frequency 4/4 (100%) (Table 4, 90 DAA, 20 g ai/ha): 0.0%
flowering inhibition performance versus the standard (Ethrel 720) (Tables 1-4, 60 to 150 days after application): as well as or better than the standard treatment; also recorded: equivalent to or better than the standard
sugarcane flowering inhibition (field studies, rates from 2 to 20 g ai/ha): excellent sugarcane flowering inhibitor
